What was measured:
Format in all cases: cell-based, human
[1] = system: Prostate cancer lines PC3 and LNCaP; assay: Preliminary cytotoxicity study of brusatol solution on prostate cancer cell lines (FIG. 1); details: brusatol 1 nM to 10,000 nM, read from FIG. 1, read-out: IC50 (kills prostate cancer cells)
Protocol: (§1) The human prostate cancer cell lines, PC3 and LNCaP, were obtained from American Type Culture Collection (Manassas, VA). The PC3 and LNCaP cell lines were maintained in RPMI 1640 supplemented with 10% (v/v) FBS and 100 U/mL of penicillin G and 100 µg/mL of streptomycin sulfate. The cells were maintained as a monolayer in an incubator at 37° C. in a humid atmosphere with 5% CO2.

[2] = system: PC3 cells; assay: Cell Titer 96 Non-Radioactive Cell Proliferation Assay, PC3 cells, 120 h; details: PC3, 10-500 nM
Protocol: as §1
(§2) PC3 (seeding density of 3,000 cells per well) and LNCaP (seeding density of 6,000 cells per well) were seeded in 96-well plates and allowed to attach for 24 h. […] Cell viability was assessed at 120 h after treatment. The Cell Titer 96® Non-Radioactive Cell Proliferation Assay manufactured by Promega Corporation was employed for this study. Results are presented as percent viability normalized to controls and represent the mean±SD of six replicates per concentration tested. Results were analyzed using One-way Analysis of Variance (ANOVA) and Student's t-test with the aid of SPSS® statistical software. Differences were considered significant at p<0.05.
(§3) The toxicity of the brusatol-loaded nanoparticles in prostate cancer cell lines was evaluated over 120 hours using the Cell Titer 96® Non-Radioactive Cell Proliferation Assay (Promega Corp.). LNCaP cells are androgen receptor dependent while PC-3 cells are androgen independent. […]

[3] = system: LNCaP cells; assay: Cell Titer 96 Non-Radioactive Cell Proliferation Assay, LNCaP cells, 120 h; details: 10-500 nM
Protocol: as §1, §2, §3

[4] = system: LNCaP cells; assay: Cell cycle analysis by propidium iodide flow cytometry; details: 50 nM brusatol, 120 h (day 5)
Protocol: LNCaP cells (seeding density of 40,000 cells per well) were seeded in triplicates in a 24-well plate and incubated for 48 hours. […] The experiment was done in triplicate. At the 120 h time point, cells were harvested and washed twice with cold PBS, fixed in 70% ethanol for 1 h at 4° C. The cells were then washed twice with PBS, and treated with ribonuclease followed by staining with propidium iodide. The stained cells were subjected to cell cycle analysis using the BD Accuri™ C6 flow cytometer (BD Biosciences, Ann Arbor, MI, USA). For each replicate, 20,000 events were recorded.

## Brusatol
[1]
  IC50: 1 to 100 nM
[2]
  toxicity (in words): dose-dependent toxicity
[3]
  toxicity (in words): dose-dependent toxicity
[4]
  cell cycle effect: induces a G1 arrest
[4]; listed as brusatol solution
  cell cycle effect: G1 arrest

Source: patent US11826344B2, “Composition, method of manufacture, and use of site-specific delivery of bruceolides for treatment of cancer and other diseases” (HOWARD UNIVERSITY, priority 2015, dated 2023)
